{"source": "patent US11235057B2", "about": "“Methods for providing polymeric synthetic nanocarriers for generating antigen-specific tolerance immune responses” (Selecta Biosciences, Inc., priority 2011, dated 2022)", "system": "Treg cells (CD4+CD25highFoxP3+)", "assay": "Antigen-specific tolerogenic dendritic cells (tDC) activity on Treg cell development", "type": "cell-based, OTII mice", "details": "FIG. 3; tDC cultured with OTII T cells 4-5 days, flow cytometry", "procedure": "The assay included the use of OTII mice which have a transgenic T cell receptor specific for an immune-dominant ovalbumin peptide (323-339). In order to create antigen-specific tDCs, CD11c^+ splenocytes were isolated, and the ovalbumin peptide (323-339) added in vitro at 1 μg/ml or no antigen. Soluble or nanocarrier-encapsulated rapamycin was then added to the DCs for 2 hours which were then washed extensively to remove free rapamycin from the culture. Purified responder CD4^+CD25^− cells were isolated from OTII mice and added to tDC at a 10:1 T to DC ratio. The mixture of tDC and OTII T cells were then cultured for 4-5 days, and the frequency of Treg cells (CD4^+CD25highFoxP3^+) were analyzed by flow cytometry as shown in FIG. 1. Regions were selected based on isotype controls.\nFree rapamycin or synthetic nanocarriers containing rapamycin were combined with free soluble Ovalbumin (323-339) to evaluate induction of tDC (FIG. 2). […] Briefly, antigen specific tDC were obtained by isolating dendritic cells (CD11c^+ splenocytes) and culturing them in combination with the Ovalbumin (323-339) peptide plus soluble or nanocarrier encapsulated rapamycin (Synthetic Nanocarrier #s 13, 14, 15 and 16) for 2 hours followed by extensive washing. […] The mixture of tDC and OTII T cells were then cultured for 4-5 days, and the frequency of Treg cells (CD4^+CD25highFoxP3^+) were analyzed by flow cytometry."}
{"smiles": "CO[C@H]1C[C@@H]2CC[C@@H](C)[C@@](O)(O2)C(=O)C(=O)N2CCCC[C@H]2C(=O)O[C@H]([C@H](C)C[C@@H]2CC[C@@H](O)[C@H](OC)C2)CC(=O)[C@H](C)/C=C(\\C)[C@@H](O)[C@@H](OC)C(=O)[C@H](C)C[C@H](C)/C=C/C=C/C=C/1C", "note": "[rapamycin]", "values": [{"measurement": "induction of FoxP3 expressing cells", "result": 2.7, "unit": "%"}]}
